Measurements taken from patent publication US20170198363A1, “COMPOSITIONS AND METHODS FOR DETECTION OF SMALL MOLECULES” (COLORADO STATE UNIVERSITY RESEARCH FOUNDATION, priority 2015, published 2017).
Numbering of substitutions follows the chain as printed.

How the values were obtained:
degron-G-PRO1-V = target: T1, degron-G-PRO1-V (Saccharomyces cerevisiae, UniProt P0CY08); experiment: HIS3 reporter growth assay, strain PJ69-4a; assay type: cell-based, yeast; conditions: HIS3 reporter strain PJ69-4a
T1 construct: expressed in transfected cells; host or cells: S. cerevisiae strain PJ69-4a transformed with a p16C (p416CYC) plasmid

plant cells = experiment: Progesterone toxicity to plant cells (protoplasts)
yeast = experiment: Progesterone toxicity to yeast cells
[1] = tested on: plant biosensor (G-DIG1-V-Matα2); experiment: Induction of the plant biosensor by steroids; assay type: in vivo, Arabidopsis thaliana; conditions: transgenic Arabidopsis
[2] = Progesterone biosensor luciferase assay in plant protoplasts; assay type: cell-based; conditions: 25 μM progesterone, L77F mutation in the Gal4 DBD
[3] = PRO0 binding of progesterone
[4] = cited from earlier work
[5] = cited from earlier work; remark: listed apart in the source

CC(=O)[C@H]1CC[C@H]2[C@@H]3CCC4=CC(=O)CC[C@]4(C)[C@H]3CC[C@]12C [Progesterone, progesterone]
stimulation of growth of degron-G-PRO1-V (degron-G-PRO1-V): stimulated | concentration that seems to be toxic to the plant cells (plant cells): 250 µM | level at which toxic, leading to substantial cell death (yeast): ≥ 100 µM

C[C@H]1O[C@@H](O[C@H]2[C@@H](O)C[C@H](O[C@H]3[C@@H](O)C[C@H](O[C@H]4CC[C@@]5(C)[C@H](CC[C@@H]6[C@@H]5C[C@@H](O)[C@]5(C)[C@@H](C7=CC(=O)OC7)CC[C@]65O)C4)O[C@@H]3C)O[C@@H]2C)C[C@H](O)[C@@H]1O [digoxin]
induction of the plant biosensor [1]: capable of inducing

B1: PRO2: progesterone binding sensor protein, SEQ ID NO:17, tested as TF-biosensor in plant protoplasts (protein)
chain: MNAKEIVVHSLRLLENGDARGWSDLFHPEGVLEFPYAPPGHKTRFEGRETIWAHMRLFPEYVTVRFTDVQFYETADPDLAIGEFHGDGVLTASGGMLAFDFIAVWRTRDGQILQYRVFYNPLRELEALGGVEAAAKIVQGAGSLE
increase in luciferase expression over background levels [2]: ~3 fold

B2: PRO0: progesterone binder from three rationally designed binding site mutations in DIG0; SEQ ID NO:13 (protein)
chain: B1 chain with M96K, Q114L, Y119F, E124V
affinity for progesterone [3]: nanomolar

B3: DIG10.3 (protein)
chain: B1 chain with F34Y, M96K, F99Y, F101Y, Q114L, Y119F, E124V
affinity for digoxigenin [4]: picomolar | affinity for digoxin [5]: picomolar
